# Experimental data from patent US20150353530A1 (CORTENDO AB (PUBL), priority 2013, published 2015).
# Biological target: T1, recombinant CYP-17 (Homo sapiens, UniProt P05093)
# T1 construct: expressed in transfected cells
# T1 sequence (P05093 1-508): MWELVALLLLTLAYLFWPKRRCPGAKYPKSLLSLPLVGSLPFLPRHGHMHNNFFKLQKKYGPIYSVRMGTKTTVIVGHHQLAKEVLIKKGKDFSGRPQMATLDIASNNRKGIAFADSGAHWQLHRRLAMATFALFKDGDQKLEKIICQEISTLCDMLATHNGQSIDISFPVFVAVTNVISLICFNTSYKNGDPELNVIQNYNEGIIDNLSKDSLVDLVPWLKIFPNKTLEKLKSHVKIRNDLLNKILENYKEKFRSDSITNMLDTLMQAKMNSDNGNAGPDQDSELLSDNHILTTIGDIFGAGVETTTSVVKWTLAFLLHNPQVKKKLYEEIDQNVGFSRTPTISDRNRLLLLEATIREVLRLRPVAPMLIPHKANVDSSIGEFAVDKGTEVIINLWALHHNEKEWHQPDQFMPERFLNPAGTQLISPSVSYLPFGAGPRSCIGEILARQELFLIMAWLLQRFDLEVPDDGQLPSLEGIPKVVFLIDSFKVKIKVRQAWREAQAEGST
# Experiment: Cyp17 assay: AD293 cells over-expressing recombinant CYP-17, 3H-acetic acid release from [21-3H] 17α-hydroxyl-Pregnenolone
# Format: cell-based
# Conditions: AD293 cells, eight concentrations 10 μM to 4.5 nM
# Protocol: Cyp17 assay protocol: AD293 cells that stably over-express recombinant CYP-17 were seeded in 96 well plates coated with poly D-lysine (15,000 cell per well) and incubated at 37° C. for 24 hours in Dulbecco's Modified Eagle Medium (DMEM) with Fetal Bovine Serum (FBS) that is stripped of hormones by charcoal treatment. The media is then removed, the cells are washed once with Phosphate buffer saline solution, and 50 μL Dulbecco's Modified Eagle Medium (DMEM) with Fetal Bovine Serum (FBS) that is stripped of hormones by charcoal treatment is added. Compounds of the disclosure are then added to the wells in eight concentration spanning 10 μM to 4.5 nM, and the plates are incubated for an additional 60 minutes at 37° C. [21-^3H] […] The media is then collected, 200 μL of chloroform is added, and the mixture is shaken for 1 hour. The aqueous layer is then separated and analyzed for the presence of ^3H-acetic acid using a Perkin Elmer Topcount NXT to determine IC50s of the compounds of the disclosure.
row,SMILES,IC50 [nM]
1,COC(=O)[C@H](Cc1ccccc1)NC(=O)N1CCN(c2ccc(OC[C@H]3CO[C@](Cn4ccnc4)(c4ccc(Cl)cc4Cl)O3)cc2)CC1 [Entry 19],250
2,COCCOC(=O)N1CCN(c2ccc(OC[C@@H]3CO[C@@](Cn4ccnc4)(c4ccc(Cl)cc4Cl)O3)cc2)CC1 (racemic) [Entry 2],100
3,CCNC(=O)N1CCN(c2ccc(OC[C@H]3CO[C@](Cn4ccnc4)(c4ccc(Cl)cc4Cl)O3)cc2)CC1 [Entry 14],43
4,CCNC(=O)N1CCN(c2ccc(OC[C@@H]3CO[C@@](Cn4ccnc4)(c4ccc(Cl)cc4Cl)O3)cc2)CC1 [Entry 12],35
5,COC(=O)[C@H](Cc1ccccc1)NC(=O)N1CCN(c2ccc(OC[C@@H]3CO[C@@](Cn4ccnc4)(c4ccc(Cl)cc4Cl)O3)cc2)CC1 [Entry 17],43
6,CCOC(=O)CNC(=O)N1CCN(c2ccc(OC[C@H]3CO[C@](Cn4ccnc4)(c4ccc(Cl)cc4Cl)O3)cc2)CC1 [Entry 15],310

# The next compounds have a lower IC50 than those just listed; values first:
row,IC50 [nM],SMILES
1,25,CCOC(=O)CNC(=O)N1CCN(c2ccc(OC[C@@H]3CO[C@@](Cn4ccnc4)(c4ccc(Cl)cc4Cl)O3)cc2)CC1 [Entry 13]
2,11,O=S(=O)(CC(F)F)N1CCN(c2ccc(OC[C@@H]3CO[C@@](Cn4ccnc4)(c4ccc(Cl)cc4Cl)O3)cc2)CC1 [Entry 29]
3,8,CCCS(=O)(=O)N1CCN(c2ccc(OC[C@@H]3CO[C@@](Cn4ccnc4)(c4ccc(Cl)cc4Cl)O3)cc2)CC1 [Entry 22]

# Biological target: T2, recombinant CYP-11 (Homo sapiens, UniProt P15538)
# T2 construct: expressed in transfected cells
# T2 sequence (P15538 25-503): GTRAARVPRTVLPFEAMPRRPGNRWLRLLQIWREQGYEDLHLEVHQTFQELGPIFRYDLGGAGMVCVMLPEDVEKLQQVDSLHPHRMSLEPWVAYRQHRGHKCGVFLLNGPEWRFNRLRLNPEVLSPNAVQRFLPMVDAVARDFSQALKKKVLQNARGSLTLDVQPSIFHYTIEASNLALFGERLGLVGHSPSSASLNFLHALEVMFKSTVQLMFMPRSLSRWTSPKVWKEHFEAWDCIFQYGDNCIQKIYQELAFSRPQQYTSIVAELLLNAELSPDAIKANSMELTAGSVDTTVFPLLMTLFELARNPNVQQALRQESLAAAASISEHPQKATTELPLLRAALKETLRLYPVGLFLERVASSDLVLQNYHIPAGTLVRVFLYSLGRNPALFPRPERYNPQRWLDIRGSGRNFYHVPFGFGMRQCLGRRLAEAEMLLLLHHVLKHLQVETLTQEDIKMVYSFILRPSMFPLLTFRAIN
# Experiment: Cyp11 assay: AD293 cells over-expressing recombinant CYP-11, cortisol formation from 11-deoxycortisol by LC/MS
# Format: cell-based
# Conditions: eight concentrations 10 μM to 4.5 nM
# Protocol: (§1) AD293 cells that stably over-express recombinant CYP-11 were seeded in 96 well plates coated with poly D-lysine (15,000 cell per well) and incubated at 37° C. for 24 hours in Dulbecco's Modified Eagle Medium (DMEM) with Fetal Bovine Serum (FBS) that is stripped of hormones by charcoal treatment. The media is then removed, the cells are washed once with Phosphate buffer saline solution, and 50 μL Dulbecco's Modified Eagle Medium (DMEM) with Fetal Bovine Serum (FBS) that is stripped of hormones by charcoal treatment is added. Compounds of the disclosure are then added to the wells in eight concentration spanning 10 μM to 4.5 nM, and the plates are incubated for an additional 60 minutes at 37° C. 11-deoxycortisol is then added (2.0 μM) and the plates are incubated for an additional 12 hours at 37° C. After incubation, 50 uL of the supernatant (medium) is transferred into a fresh plate and 150 uL of an acetonitrile solution containing 200 ng/ml of Telmisartan is added. The sample is mixed and then placed in a centrifuge at 2000 rpm for 5 minutes.
row,SMILES,IC50 [nM]
1,COC(=O)[C@H](Cc1ccccc1)NC(=O)N1CCN(c2ccc(OC[C@H]3CO[C@](Cn4ccnc4)(c4ccc(Cl)cc4Cl)O3)cc2)CC1 [Entry 19],240
2,COCCOC(=O)N1CCN(c2ccc(OC[C@@H]3CO[C@@](Cn4ccnc4)(c4ccc(Cl)cc4Cl)O3)cc2)CC1 (racemic) [Entry 2],100
3,CCNC(=O)N1CCN(c2ccc(OC[C@H]3CO[C@](Cn4ccnc4)(c4ccc(Cl)cc4Cl)O3)cc2)CC1 [Entry 14],500
4,CCNC(=O)N1CCN(c2ccc(OC[C@@H]3CO[C@@](Cn4ccnc4)(c4ccc(Cl)cc4Cl)O3)cc2)CC1 [Entry 12],52
5,COC(=O)[C@H](Cc1ccccc1)NC(=O)N1CCN(c2ccc(OC[C@@H]3CO[C@@](Cn4ccnc4)(c4ccc(Cl)cc4Cl)O3)cc2)CC1 [Entry 17],100
6,CCOC(=O)CNC(=O)N1CCN(c2ccc(OC[C@H]3CO[C@](Cn4ccnc4)(c4ccc(Cl)cc4Cl)O3)cc2)CC1 [Entry 15],530

# The remaining lines, values ahead:
row,IC50 [nM],SMILES
1,66,CCOC(=O)CNC(=O)N1CCN(c2ccc(OC[C@@H]3CO[C@@](Cn4ccnc4)(c4ccc(Cl)cc4Cl)O3)cc2)CC1 [Entry 13]
2,280,O=S(=O)(CC(F)F)N1CCN(c2ccc(OC[C@@H]3CO[C@@](Cn4ccnc4)(c4ccc(Cl)cc4Cl)O3)cc2)CC1 [Entry 29]
3,91,CCCS(=O)(=O)N1CCN(c2ccc(OC[C@@H]3CO[C@@](Cn4ccnc4)(c4ccc(Cl)cc4Cl)O3)cc2)CC1 [Entry 22]

# Biological target: T3, recombinant CYP-21 (Homo sapiens, UniProt P08686)
# T3 construct: expressed in transfected cells
# T3 sequence (P08686 1-495): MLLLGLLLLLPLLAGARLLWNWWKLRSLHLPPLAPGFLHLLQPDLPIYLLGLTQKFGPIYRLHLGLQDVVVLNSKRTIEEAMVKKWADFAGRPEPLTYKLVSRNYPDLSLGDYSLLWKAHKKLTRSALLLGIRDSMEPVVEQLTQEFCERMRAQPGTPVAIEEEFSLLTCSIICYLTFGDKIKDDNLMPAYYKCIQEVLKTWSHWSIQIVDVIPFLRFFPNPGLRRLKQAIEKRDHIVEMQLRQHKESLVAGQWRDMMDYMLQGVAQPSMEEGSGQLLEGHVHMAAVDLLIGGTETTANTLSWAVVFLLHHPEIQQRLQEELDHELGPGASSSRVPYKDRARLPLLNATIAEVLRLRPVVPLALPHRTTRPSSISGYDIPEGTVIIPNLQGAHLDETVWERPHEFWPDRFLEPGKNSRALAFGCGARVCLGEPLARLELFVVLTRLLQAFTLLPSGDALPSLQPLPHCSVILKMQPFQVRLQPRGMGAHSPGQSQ
# Experiment: Cyp21 assay: AD293 cells over-expressing recombinant CYP-21, 11-deoxycortisol formation from 17α-OH Progesterone by LC/MS
# Format: cell-based
# Conditions: eight concentrations 10 μM to 4.5 nM
# Protocol: as §1, with “Cyp21 assay protocol: AD293” for “AD293”, “CYP-21” for “CYP-11”, “(10,000” for “(15,000”, “17α-OH Progesterone” for “11-deoxycortisol”, “(1.0” for “(2.0”, “45 minutes” for “12 hours”
row,SMILES,IC50 [nM]
1,COC(=O)[C@H](Cc1ccccc1)NC(=O)N1CCN(c2ccc(OC[C@H]3CO[C@](Cn4ccnc4)(c4ccc(Cl)cc4Cl)O3)cc2)CC1 [Entry 19],740
2,COCCOC(=O)N1CCN(c2ccc(OC[C@@H]3CO[C@@](Cn4ccnc4)(c4ccc(Cl)cc4Cl)O3)cc2)CC1 (racemic) [Entry 2],230
3,CCNC(=O)N1CCN(c2ccc(OC[C@@H]3CO[C@@](Cn4ccnc4)(c4ccc(Cl)cc4Cl)O3)cc2)CC1 [Entry 12],690
4,COC(=O)[C@H](Cc1ccccc1)NC(=O)N1CCN(c2ccc(OC[C@@H]3CO[C@@](Cn4ccnc4)(c4ccc(Cl)cc4Cl)O3)cc2)CC1 [Entry 17],360
5,CCOC(=O)CNC(=O)N1CCN(c2ccc(OC[C@H]3CO[C@](Cn4ccnc4)(c4ccc(Cl)cc4Cl)O3)cc2)CC1 [Entry 15],2460

# The next lines start with the values.
row,IC50 [nM],SMILES
1,710,CCOC(=O)CNC(=O)N1CCN(c2ccc(OC[C@@H]3CO[C@@](Cn4ccnc4)(c4ccc(Cl)cc4Cl)O3)cc2)CC1 [Entry 13]
2,80,O=S(=O)(CC(F)F)N1CCN(c2ccc(OC[C@@H]3CO[C@@](Cn4ccnc4)(c4ccc(Cl)cc4Cl)O3)cc2)CC1 [Entry 29]
3,128,CCCS(=O)(=O)N1CCN(c2ccc(OC[C@@H]3CO[C@@](Cn4ccnc4)(c4ccc(Cl)cc4Cl)O3)cc2)CC1 [Entry 22]
